Data: PubChem BioAssay AID248 (DTP/NCI, 2004)
Toxic doses and inconclusive results are not listed. Rule as the data show it: active = T/C of 150% or more; inactive = T/C below 125%.

Test system: L1210 leukemia ip in BDF1 mice, survival T/C
Test: NCI In Vivo Anticancer Drug Screen. Data for tumor model L1210 Leukemia (intraperitoneal) in B6D2F1 (BDF1) mice
Conditions: endpoint: mean survival time, higher = longer survival
How it was run: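 In this screen, tumor-bearing mice given compound are compared to those given vehicle, and their survival values are reported as a treated-to-control quotient.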

[1] = dose: 100.0 mg/kg/injection, schedule: Q01DX001 (ip), vehicle: Klucel (hydroxypropylcellulose) (HPC)
[2] = dose: 200.0 mg/kg/injection, schedule: Q01DX001 (ip), vehicle: Klucel (hydroxypropylcellulose) (HPC)
[3] = dose: 400.0 mg/kg/injection, schedule: Q01DX001 (ip), vehicle: Klucel (hydroxypropylcellulose) (HPC)
[4] = dose: 100.0 mg/kg/injection, schedule: Q04DX003 (ip), vehicle: Klucel (hydroxypropylcellulose) (HPC)
[5] = dose: 200.0 mg/kg/injection, schedule: Q04DX003 (ip), vehicle: Klucel (hydroxypropylcellulose) (HPC)
[6] = dose: 400.0 mg/kg/injection, schedule: Q04DX003 (ip), vehicle: Klucel (hydroxypropylcellulose) (HPC)
[7] = dose: 100.0 mg/kg/injection, schedule: Q01DX009 (ip), vehicle: Klucel (hydroxypropylcellulose) (HPC)
[8] = dose: 200.0 mg/kg/injection, schedule: Q01DX009 (ip), vehicle: Klucel (hydroxypropylcellulose) (HPC)
[9] = dose: 50.0 mg/kg/injection, schedule: Q01DX009 (ip), vehicle: saline
[10] = dose: 100.0 mg/kg/injection, schedule: Q01DX009 (ip), vehicle: saline
[11] = dose: 200.0 mg/kg/injection, schedule: Q01DX009 (ip), vehicle: saline
[12] = dose: 400.0 mg/kg/injection, schedule: Q01DX009 (ip), vehicle: Klucel (hydroxypropylcellulose) (HPC)

Measured: T/C

COc1cccc2c1C(=O)c1c(O)c3c(c(O)c1C2=O)C[C@@](O)(/C(C)=N/NC(N)=S)C[C@@H]3OC1CC(N)C(O)C(C)O1 (stereo not given in full)
inactive: dose: 0.25 mg/kg/injection, schedule: Q04DX003 (ip), vehicle: water 102 % of control | dose: 0.5 mg/kg/injection, schedule: Q04DX003 (ip), vehicle: water 110 % of control | dose: 1.0 mg/kg/injection, schedule: Q01DX009 (ip), vehicle: water 121 % of control | dose: 1.0 mg/kg/injection, schedule: Q04DX003 (ip), vehicle: water 107 % of control | dose: 2.0 mg/kg/injection, schedule: Q01DX009 (ip), vehicle: water 119 % of control | dose: 2.0 mg/kg/injection, schedule: Q04DX003 (ip), vehicle: water 104 % of control | dose: 4.0 mg/kg/injection, schedule: Q04DX003 (ip), vehicle: water 114 % of control | dose: 7.0 mg/kg/injection, schedule: Q04DX003 (ip), vehicle: water 122 % of control | dose: 8.0 mg/kg/injection, schedule: Q04DX003 (ip), vehicle: water 107 % of control | dose: 10.6 mg/kg/injection, schedule: Q04DX003 (ip), vehicle: water 120 % of control | dose: 24.0 mg/kg/injection, schedule: Q04DX003 (ip), vehicle: water 122 % of control | dose: 32.0 mg/kg/injection, schedule: Q01DX009 (ip), vehicle: water 124 % of control

C/C(=C/CC1CCC2C3=CCC4CC(O)CCC4(C)C3CCC12C)C(C)C(C)C (stereo not given)
inactive: [1] 102 % of control | [2] 98 % of control | [3] 88 % of control

O=C(CC(c1ccccc1)N1CCN(c2ccccc2)CC1)c1ccccc1 (stereo not given)
inactive: [4] 102 % of control | [5] 97 % of control | [6] 94 % of control

O=C(O)C1(O)c2cc(Br)ccc2-c2ccc(Br)cc21
inactive: dose: 50.0 mg/kg/injection, schedule: Q01DX001 (ip), vehicle: carboxymethylcellulose (CMC) 100 % of control | dose: 100.0 mg/kg/injection, schedule: Q01DX001 (ip), vehicle: carboxymethylcellulose (CMC) 97 % of control | dose: 200.0 mg/kg/injection, schedule: Q01DX001 (ip), vehicle: carboxymethylcellulose (CMC) 100 % of control | dose: 400.0 mg/kg/injection, schedule: Q01DX001 (ip), vehicle: carboxymethylcellulose (CMC) 92 % of control

c1coc(CNc2cc(NCc3ccco3)ncn2)c1
inactive: [7] 98 % of control | [8] 95 % of control

CC(CN1CCOCC1)O[Si](C)(C)C (stereo not given)
inactive: [9] 92 % of control | [10] 96 % of control | [11] 96 % of control

CC(=O)OC1CC2C=CC1C2 (stereo not given) (tested in a mixture with another compound)
inactive: dose: 50.0 mg/kg/injection, schedule: Q01DX009 (ip), vehicle: saline with Tween-80 89 % of control | dose: 100.0 mg/kg/injection, schedule: Q01DX009 (ip), vehicle: saline with Tween-80 89 % of control | dose: 200.0 mg/kg/injection, schedule: Q01DX009 (ip), vehicle: saline with Tween-80 92 % of control

O=C(Nc1ccccc1Cl)OCCOc1ccccc1
inactive: [7] 97 % of control | [8] 97 % of control | [12] 94 % of control

COC(=O)/C=C/c1ccc(OC)c(OC)c1
inactive: [4] 93 % of control | [5] 95 % of control | [6] 102 % of control

COc1cccc2c1C(=O)c1c(O)c3c(c(O)c1C2=O)CC(O)(/C(C)=N/NC(=O)c1ccccc1)CC3OC1CC(N)C(O)C(C)O1 (stereo not given)
inactive: dose: 200.0 mg/kg/injection, schedule: Q04DX003 (ip), vehicle: water 124 % of control

O=C(Nc1ccc(Cl)cc1)OCC#CCOC(=O)Nc1ccc(Cl)cc1
inactive: dose: 75.0 mg/kg/injection, schedule: Q04DX003 (ip), vehicle: Klucel (hydroxypropylcellulose) (HPC) 93 % of control | dose: 100.0 mg/kg/injection, schedule: Q01DX001 (ip), vehicle: saline with Tween-80 90 % of control | dose: 100.0 mg/kg/injection, schedule: Q04DX003 (ip), vehicle: saline with Tween-80 88 % of control | dose: 150.0 mg/kg/injection, schedule: Q04DX003 (ip), vehicle: Klucel (hydroxypropylcellulose) (HPC) 93 % of control | dose: 200.0 mg/kg/injection, schedule: Q01DX001 (ip), vehicle: saline with Tween-80 88 % of control | dose: 300.0 mg/kg/injection, schedule: Q04DX003 (ip), vehicle: Klucel (hydroxypropylcellulose) (HPC) 98 % of control | dose: 400.0 mg/kg/injection, schedule: Q01DX001 (ip), vehicle: saline with Tween-80 90 % of control | dose: 400.0 mg/kg/injection, schedule: Q04DX003 (ip), vehicle: saline with Tween-80 90 % of control

C=CC(=O)N1CN(C(=O)C=C)CN(C(=O)C=C)C1
inactive: dose: 1.25 mg/kg/injection, schedule: Q01DX009 (ip), vehicle: saline 99 % of control | dose: 2.5 mg/kg/injection, schedule: Q01DX009 (ip), vehicle: saline 99 % of control | dose: 5.0 mg/kg/injection, schedule: Q01DX009 (ip), vehicle: saline 104 % of control

COc1ccccc1N=Nc1c(O)n(-c2ccc(C)cc2)c(=S)n(-c2ccc(C)cc2)c1=O
inactive: dose: 50.0 mg/kg/injection, schedule: Q01DX001 (ip), vehicle: Klucel (hydroxypropylcellulose) (HPC) 86 % of control | [1] 89 % of control | [2] 102 % of control

O=C(O)c1ccc(=O)[nH]c1
inactive: [10] 95 % of control | dose: 100.0 mg/kg/injection, schedule: Q04DX003 (ip), vehicle: saline 107 % of control | [11] 96 % of control | dose: 200.0 mg/kg/injection, schedule: Q04DX003 (ip), vehicle: saline 109 % of control | dose: 400.0 mg/kg/injection, schedule: Q01DX009 (ip), vehicle: saline 95 % of control | dose: 400.0 mg/kg/injection, schedule: Q04DX003 (ip), vehicle: saline 104 % of control

CS1(=O)=CC(=O)CC(c2ccccc2)C1 (stereo not given)
inactive: [1] 101 % of control | [7] 107 % of control | [4] 106 % of control | [2] 98 % of control | [8] 102 % of control | [5] 104 % of control | [3] 98 % of control | [12] 107 % of control | [6] 102 % of control

NC(N)=NC(N)=NC1CCCCC1
inactive: [9] 89 % of control | [10] 102 % of control | [11] 108 % of control

COC(=O)c1cc(NC(=O)Nc2ccc(Cl)cc2[N+](=O)[O-])cc(C(=O)OC)c1
inactive: [7] 92 % of control | [8] 101 % of control | [12] 93 % of control

CC(=O)OC1C(C2CSC(=O)O2)OC2OC(C)(C)OC21 (stereo not given)
inactive: dose: 25.0 mg/kg/injection, schedule: Q04DX002 (ip), vehicle: saline 89 % of control | dose: 50.0 mg/kg/injection, schedule: Q04DX002 (ip), vehicle: saline 103 % of control | dose: 100.0 mg/kg/injection, schedule: Q04DX002 (ip), vehicle: saline 92 % of control
